Reference: patent US20210255193A1, “LYSINE REACTIVE PROBES AND USES THEREOF” (The Scripps Research Institute, priority 2017, published 2021)

What was measured:
Assay in all cases: competitive isoTOP-ABPP
Format in all cases: binding
[1] = molecular target: T1, NAA25 N-alpha-acetyltransferase 25, NatB auxiliary subunit (Homo sapiens, UniProt Q14CX7); conditions: for isoTOP-ABPP ratio, lysine Q14CX7_K575: 50 uM_231_sol_in vitro
T1 construct: isoTOP-ABPP experiments performed in cell lysates (in vitro); endogenous in cells; host or cells: soluble proteome of human cancer cell lines (MDA-MB-231; Ramos and Jurkat also prepared)
In short: (§1)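 Competition format: fragment (50 μM activated ester, 100 μM guanidinylating agent) versus vehicle in lysate, then lysine probe STP-alkyne at 0.1 mM for 1 h. Quantitation by light/heavy TEV-tag MS1 peak areas, reported as R.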

[2] = molecular target: T2, DYNC1H1 Cytoplasmic dynein 1 heavy chain 1 (Homo sapiens, UniProt Q14204); conditions: for isoTOP-ABPP ratio, lysine Q14204_K1649: 50 uM_231_sol_in vitro
T2 construct: isoTOP-ABPP experiments performed in cell lysates (in vitro); endogenous in cells; host or cells: soluble proteome of human cancer cell lines (MDA-MB-231, Ramos, Jurkat)
In short: as §1

[3] = molecular target: T3, GLUD1 Glutamate dehydrogenase 1, mitochondrial (Homo sapiens, UniProt P00367); conditions: for isoTOP-ABPP ratio, lysine P00367_K480: 50 uM_231_sol_in vitro, possible other lysine P00367_K477
T3 construct: isoTOP-ABPP experiments performed in cell lysates (in vitro); endogenous in cells; host or cells: MDA-MB-231 soluble lysate
In short: as §1

[4] = molecular target: T4, ERAP1 Endoplasmic reticulum aminopeptidase 1 (Homo sapiens, UniProt Q9NZ08); conditions: for isoTOP-ABPP ratio, lysine Q9NZ08_K685: 50 uM_231_sol_in vitro
T4 construct: endogenous in cells; host or cells: MDA-MB-231 lysate
In short: as §1

STRN3 Striatin-3 = molecular target: T5, STRN3 Striatin-3 (Homo sapiens, UniProt Q13033); conditions: for isoTOP-ABPP ratio, lysine Q13033_K755: 50 uM_231_sol_in vitro
T5 construct: isoTOP-ABPP experiments performed in cell lysates (in vitro); endogenous in cells; host or cells: soluble proteome of human cancer cell lines (MDA-MB-231, Ramos, Jurkat)
T5 sequence (Q13033 1-797): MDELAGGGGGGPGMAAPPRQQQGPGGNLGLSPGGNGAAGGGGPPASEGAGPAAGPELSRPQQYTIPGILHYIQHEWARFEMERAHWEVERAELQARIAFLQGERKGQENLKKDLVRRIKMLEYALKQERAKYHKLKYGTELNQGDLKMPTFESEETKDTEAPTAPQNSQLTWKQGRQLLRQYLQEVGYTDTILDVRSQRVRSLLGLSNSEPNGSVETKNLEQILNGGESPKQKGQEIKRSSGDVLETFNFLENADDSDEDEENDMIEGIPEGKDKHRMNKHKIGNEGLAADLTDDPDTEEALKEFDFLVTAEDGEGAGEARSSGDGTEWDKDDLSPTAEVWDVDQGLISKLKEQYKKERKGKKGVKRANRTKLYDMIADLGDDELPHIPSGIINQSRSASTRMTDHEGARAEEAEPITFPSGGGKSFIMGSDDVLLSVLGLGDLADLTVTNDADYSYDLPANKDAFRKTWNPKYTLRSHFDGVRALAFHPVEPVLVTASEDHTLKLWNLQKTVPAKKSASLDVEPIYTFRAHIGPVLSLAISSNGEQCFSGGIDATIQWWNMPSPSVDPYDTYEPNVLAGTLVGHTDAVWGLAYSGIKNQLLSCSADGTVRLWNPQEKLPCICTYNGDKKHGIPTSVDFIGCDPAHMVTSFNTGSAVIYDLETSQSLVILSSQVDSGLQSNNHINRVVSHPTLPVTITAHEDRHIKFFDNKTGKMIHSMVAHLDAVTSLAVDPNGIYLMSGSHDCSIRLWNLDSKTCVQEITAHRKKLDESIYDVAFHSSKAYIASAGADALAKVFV
In short: as §1

EEF2 Elongation factor 2 = molecular target: T6, EEF2 Elongation factor 2 (Homo sapiens, UniProt P13639); conditions: for isoTOP-ABPP reactivity ratio at lysine P13639_K235 / isoTOP-ABPP reactivity ratio at lysine P13639_K318 / R value (DMSO/fragment) for probe 1 labeling: 231 sol; for isoTOP-ABPP ratio, lysine P13639_K235 / isoTOP-ABPP ratio, lysine P13639_K318: 50 uM_231_sol_in vitro
T6 construct: isoTOP-ABPP experiments performed in cell lysates (in vitro); endogenous in cells; host or cells: soluble proteome of human cancer cell lines (MDA-MB-231; Ramos and Jurkat also prepared)
In short: as §1

[5] = molecular target: T7, KIAA1967 DBIRD complex subunit KIAA1967 (Homo sapiens, UniProt Q8N163); conditions: for isoTOP-ABPP reactivity ratio at lysine Q8N163_K97 / isoTOP-ABPP reactivity ratio at lysine Q8N163_K112 / R value (DMSO/fragment) for probe 1 labeling: 231 sol; for isoTOP-ABPP ratio, lysine Q8N163_K97 / isoTOP-ABPP ratio, lysine Q8N163_K112: 50 uM_231_sol_in vitro
T7 construct: isoTOP-ABPP experiments performed in cell lysates (in vitro); endogenous in cells; host or cells: soluble proteome of human cancer cell lines (MDA-MB-231; Ramos and Jurkat also prepared)
In short: as §1

T2 sequence (Q14204 whole entry): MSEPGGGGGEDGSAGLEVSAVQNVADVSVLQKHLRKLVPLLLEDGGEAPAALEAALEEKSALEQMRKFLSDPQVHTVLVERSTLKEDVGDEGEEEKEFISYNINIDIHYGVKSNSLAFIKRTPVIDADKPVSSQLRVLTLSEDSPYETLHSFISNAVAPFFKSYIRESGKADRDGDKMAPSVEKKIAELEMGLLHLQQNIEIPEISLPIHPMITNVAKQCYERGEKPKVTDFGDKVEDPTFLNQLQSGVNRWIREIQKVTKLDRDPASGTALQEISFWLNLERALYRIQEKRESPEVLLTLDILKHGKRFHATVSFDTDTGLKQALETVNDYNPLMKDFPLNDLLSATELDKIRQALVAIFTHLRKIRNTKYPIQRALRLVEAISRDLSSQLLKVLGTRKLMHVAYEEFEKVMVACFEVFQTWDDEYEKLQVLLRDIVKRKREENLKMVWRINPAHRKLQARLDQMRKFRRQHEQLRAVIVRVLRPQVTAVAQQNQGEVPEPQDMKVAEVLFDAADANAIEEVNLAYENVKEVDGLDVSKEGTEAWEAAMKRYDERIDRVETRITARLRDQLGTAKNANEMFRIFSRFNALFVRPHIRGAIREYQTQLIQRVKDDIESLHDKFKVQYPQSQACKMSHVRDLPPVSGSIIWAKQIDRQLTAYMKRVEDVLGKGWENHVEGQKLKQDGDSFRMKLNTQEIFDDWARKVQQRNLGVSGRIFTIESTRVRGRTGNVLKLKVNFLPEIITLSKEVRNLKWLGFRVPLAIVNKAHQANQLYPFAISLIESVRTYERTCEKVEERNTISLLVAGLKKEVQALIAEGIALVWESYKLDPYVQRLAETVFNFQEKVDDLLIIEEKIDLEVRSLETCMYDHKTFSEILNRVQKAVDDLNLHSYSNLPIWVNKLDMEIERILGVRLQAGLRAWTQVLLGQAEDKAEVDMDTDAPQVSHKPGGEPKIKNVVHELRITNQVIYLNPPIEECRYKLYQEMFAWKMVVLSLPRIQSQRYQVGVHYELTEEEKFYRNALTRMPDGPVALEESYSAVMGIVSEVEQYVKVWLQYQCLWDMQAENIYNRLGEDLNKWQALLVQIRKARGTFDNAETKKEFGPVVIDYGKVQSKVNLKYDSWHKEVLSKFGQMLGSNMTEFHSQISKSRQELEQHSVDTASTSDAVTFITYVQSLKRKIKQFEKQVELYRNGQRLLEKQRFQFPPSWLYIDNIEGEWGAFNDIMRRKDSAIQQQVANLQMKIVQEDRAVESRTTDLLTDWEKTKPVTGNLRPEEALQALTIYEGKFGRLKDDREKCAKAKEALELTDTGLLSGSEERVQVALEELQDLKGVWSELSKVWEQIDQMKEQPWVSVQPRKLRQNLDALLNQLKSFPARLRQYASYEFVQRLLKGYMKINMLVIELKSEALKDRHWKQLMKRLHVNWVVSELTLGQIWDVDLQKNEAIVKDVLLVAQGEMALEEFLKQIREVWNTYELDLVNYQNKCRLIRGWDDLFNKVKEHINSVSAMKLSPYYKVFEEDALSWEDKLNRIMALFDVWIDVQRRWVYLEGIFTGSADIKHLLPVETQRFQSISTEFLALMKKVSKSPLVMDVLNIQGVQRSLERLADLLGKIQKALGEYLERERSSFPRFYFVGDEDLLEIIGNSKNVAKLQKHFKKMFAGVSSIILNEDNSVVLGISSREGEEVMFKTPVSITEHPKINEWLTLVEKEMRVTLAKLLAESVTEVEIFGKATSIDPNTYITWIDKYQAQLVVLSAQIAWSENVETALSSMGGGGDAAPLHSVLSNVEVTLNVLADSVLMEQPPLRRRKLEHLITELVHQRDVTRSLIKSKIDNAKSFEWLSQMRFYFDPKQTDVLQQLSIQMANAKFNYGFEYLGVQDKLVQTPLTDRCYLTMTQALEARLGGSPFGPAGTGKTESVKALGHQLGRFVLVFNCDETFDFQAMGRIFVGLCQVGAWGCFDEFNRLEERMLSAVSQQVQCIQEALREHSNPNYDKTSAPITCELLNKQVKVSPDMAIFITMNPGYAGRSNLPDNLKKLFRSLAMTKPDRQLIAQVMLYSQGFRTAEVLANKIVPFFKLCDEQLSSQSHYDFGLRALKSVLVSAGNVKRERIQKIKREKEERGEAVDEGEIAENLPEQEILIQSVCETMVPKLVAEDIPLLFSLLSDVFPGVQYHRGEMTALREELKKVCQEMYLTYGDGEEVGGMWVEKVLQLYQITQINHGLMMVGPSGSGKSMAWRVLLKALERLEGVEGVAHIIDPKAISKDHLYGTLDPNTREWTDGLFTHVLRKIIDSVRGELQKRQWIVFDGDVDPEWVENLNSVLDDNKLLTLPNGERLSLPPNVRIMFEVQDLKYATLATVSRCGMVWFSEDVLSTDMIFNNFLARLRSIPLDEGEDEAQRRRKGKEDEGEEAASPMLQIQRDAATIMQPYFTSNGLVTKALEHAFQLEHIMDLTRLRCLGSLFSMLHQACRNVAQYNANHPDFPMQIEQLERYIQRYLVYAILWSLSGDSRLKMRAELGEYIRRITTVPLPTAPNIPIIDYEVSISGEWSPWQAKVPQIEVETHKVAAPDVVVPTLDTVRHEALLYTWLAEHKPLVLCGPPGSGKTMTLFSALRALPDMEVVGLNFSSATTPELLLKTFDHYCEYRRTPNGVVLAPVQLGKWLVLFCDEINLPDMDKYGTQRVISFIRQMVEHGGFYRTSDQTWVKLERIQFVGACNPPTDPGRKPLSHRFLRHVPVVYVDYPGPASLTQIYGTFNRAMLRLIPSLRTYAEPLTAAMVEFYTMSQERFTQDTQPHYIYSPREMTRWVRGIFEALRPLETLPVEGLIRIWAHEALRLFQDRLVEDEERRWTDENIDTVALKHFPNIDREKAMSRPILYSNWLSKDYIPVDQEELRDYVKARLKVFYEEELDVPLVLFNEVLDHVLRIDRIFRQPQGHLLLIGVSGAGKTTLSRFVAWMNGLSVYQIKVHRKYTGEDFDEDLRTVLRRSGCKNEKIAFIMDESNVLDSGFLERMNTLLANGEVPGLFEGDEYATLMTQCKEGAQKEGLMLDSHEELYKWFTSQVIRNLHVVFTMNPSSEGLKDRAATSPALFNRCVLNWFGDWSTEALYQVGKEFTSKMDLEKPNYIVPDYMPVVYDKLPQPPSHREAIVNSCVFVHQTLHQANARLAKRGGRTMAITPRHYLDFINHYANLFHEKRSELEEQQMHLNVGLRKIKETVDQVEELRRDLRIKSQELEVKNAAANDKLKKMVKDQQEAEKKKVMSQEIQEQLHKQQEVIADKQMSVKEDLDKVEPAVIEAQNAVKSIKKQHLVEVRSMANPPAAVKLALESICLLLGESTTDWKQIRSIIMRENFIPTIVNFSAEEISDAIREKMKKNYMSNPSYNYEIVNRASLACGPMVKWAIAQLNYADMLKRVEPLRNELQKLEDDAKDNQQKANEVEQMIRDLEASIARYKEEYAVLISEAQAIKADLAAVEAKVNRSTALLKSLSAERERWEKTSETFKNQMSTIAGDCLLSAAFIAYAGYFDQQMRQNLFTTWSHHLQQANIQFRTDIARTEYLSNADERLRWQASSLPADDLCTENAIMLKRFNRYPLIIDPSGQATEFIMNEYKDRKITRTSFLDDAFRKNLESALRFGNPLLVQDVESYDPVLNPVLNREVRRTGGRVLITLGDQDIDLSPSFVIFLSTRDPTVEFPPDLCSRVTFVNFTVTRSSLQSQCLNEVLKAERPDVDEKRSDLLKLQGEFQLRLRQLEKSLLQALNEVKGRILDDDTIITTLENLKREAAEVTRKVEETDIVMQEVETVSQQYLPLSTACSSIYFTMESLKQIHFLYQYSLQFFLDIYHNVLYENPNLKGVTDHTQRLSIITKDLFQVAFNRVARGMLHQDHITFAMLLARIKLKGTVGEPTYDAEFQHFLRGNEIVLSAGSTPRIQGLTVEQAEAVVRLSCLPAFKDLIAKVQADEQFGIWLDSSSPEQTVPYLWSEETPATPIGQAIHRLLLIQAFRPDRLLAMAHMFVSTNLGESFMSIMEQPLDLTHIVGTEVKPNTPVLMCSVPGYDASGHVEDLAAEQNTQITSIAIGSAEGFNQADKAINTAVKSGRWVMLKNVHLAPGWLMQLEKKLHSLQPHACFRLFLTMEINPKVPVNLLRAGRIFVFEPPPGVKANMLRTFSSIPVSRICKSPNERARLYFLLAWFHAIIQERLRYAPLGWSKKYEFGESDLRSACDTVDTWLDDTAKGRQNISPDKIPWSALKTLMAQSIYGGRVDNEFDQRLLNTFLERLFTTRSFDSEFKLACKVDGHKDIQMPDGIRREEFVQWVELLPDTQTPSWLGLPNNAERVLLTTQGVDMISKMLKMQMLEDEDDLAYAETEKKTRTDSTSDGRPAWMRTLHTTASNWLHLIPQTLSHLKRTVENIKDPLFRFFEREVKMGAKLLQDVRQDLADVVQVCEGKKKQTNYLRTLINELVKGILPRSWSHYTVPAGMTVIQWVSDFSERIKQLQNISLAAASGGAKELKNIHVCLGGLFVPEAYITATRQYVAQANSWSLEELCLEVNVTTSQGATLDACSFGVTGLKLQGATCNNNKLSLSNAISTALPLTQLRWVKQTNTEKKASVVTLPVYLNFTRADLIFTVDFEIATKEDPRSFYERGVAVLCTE
T3 sequence (P00367 54-558): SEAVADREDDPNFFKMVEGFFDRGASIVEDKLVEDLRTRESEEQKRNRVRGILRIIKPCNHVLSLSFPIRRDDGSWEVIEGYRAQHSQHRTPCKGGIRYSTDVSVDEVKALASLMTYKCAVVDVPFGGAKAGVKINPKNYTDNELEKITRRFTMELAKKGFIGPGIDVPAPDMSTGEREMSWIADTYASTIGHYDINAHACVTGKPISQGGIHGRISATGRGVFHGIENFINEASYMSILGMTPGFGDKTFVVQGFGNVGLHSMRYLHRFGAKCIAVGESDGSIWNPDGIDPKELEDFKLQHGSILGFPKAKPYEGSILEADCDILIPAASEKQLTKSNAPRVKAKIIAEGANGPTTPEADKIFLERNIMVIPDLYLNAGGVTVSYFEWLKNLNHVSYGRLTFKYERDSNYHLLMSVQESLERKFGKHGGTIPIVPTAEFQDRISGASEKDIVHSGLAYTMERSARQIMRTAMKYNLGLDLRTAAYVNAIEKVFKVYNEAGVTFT

| SMILES | isoTOP-ABPP reactivity ratio at lysine Q14CX7_K575 ([1]; 50 uM, 231 sol, in vitro) | isoTOP-ABPP reactivity ratio at lysine Q14204_K1649 ([2]; 50 uM, 231 sol, in vitro) | isoTOP-ABPP reactivity ratio at lysine P00367_K480 ([3]; 50 uM, 231 sol, in vitro) | isoTOP-ABPP reactivity ratio at lysine Q9NZ08_K685 ([4]; 50 uM, 231 sol, in vitro) | isoTOP-ABPP reactivity ratio at lysine Q13033_K755 (STRN3 Striatin-3; 50 uM, 231 sol, in vitro) | isoTOP-ABPP reactivity ratio at lysine P13639_K235 (EEF2 Elongation factor 2; 50 uM, in vitro) | isoTOP-ABPP reactivity ratio at lysine P13639_K318 (EEF2 Elongation factor 2; 50 uM, in vitro) | isoTOP-ABPP reactivity ratio at lysine Q8N163_K97 ([5]; 50 uM, in vitro) | isoTOP-ABPP reactivity ratio at lysine Q8N163_K112 ([5]; 50 uM, in vitro) | other results |
| --- | --- | --- | --- | --- | --- | --- | --- | --- | --- | --- |
| Cn1cc(CC(=O)Oc2ccc([N+](=O)[O-])cc2[N+](=O)[O-])c2ccccc21 [fragment 32, 2,4-Dinitrophenyl 2-(1-methyl-1H-indol-3-yl)acetate] | 2.4 | 1.2 | 4.4 | 2.8 | 2.7 | 1.4 | 1.5 | 1.1 | 1.2 |  |
| O=C(CCc1cn(-c2ccccc2)nc1-c1ccccc1)Oc1ccc([N+](=O)[O-])cc1[N+](=O)[O-] [fragment 29, 2,4-Dinitrophenyl 3-(1,3-diphenyl-1H-pyrazol-4-yl)propanoate] | 1.1 | 1.1 | 1.9 | 1.0 | 1.1 | 1.0 | 0.9 | 0.8 | 1.2 |  |
| O=C(Oc1c(F)c(F)c(F)c(F)c1F)C1CCN(C(=O)OCc2ccccc2)CC1 [fragment 24, 1-Benzyl 4-(pentafluorophenyl) piperidine-1,4-dicarboxylate] | 1.1 | 1.3 | 2.0 | 1.6 | 1.1 | 1.1 | 1.2 | 0.9 | 1.0 |  |
| NC(=O)c1cc(C(F)(F)F)cc(C(F)(F)F)c1 [fragment 51, reference compound] |  |  |  |  |  |  |  |  |  | isoTOP-ABPP ratio, lysine Q14CX7_K575 [1]: 1.0; isoTOP-ABPP ratio, lysine Q14204_K1649 [2]: 0.7; isoTOP-ABPP ratio, lysine P00367_K480 [3]: 1.5; isoTOP-ABPP ratio, lysine Q9NZ08_K685 [4]: 0.9; isoTOP-ABPP ratio, lysine Q13033_K755 (STRN3 Striatin-3): 0.9; isoTOP-ABPP ratio, lysine P13639_K235 (EEF2 Elongation factor 2): 0.9; isoTOP-ABPP ratio, lysine P13639_K318 (EEF2 Elongation factor 2): 0.9; isoTOP-ABPP ratio, lysine Q8N163_K97 [5]: 0.8; isoTOP-ABPP ratio, lysine Q8N163_K112 [5]: 0.8 |
| N#Cc1ccc(C(=O)Oc2ccc([N+](=O)[O-])cc2[N+](=O)[O-])cc1 [fragment 44, 2,4-Dinitrophenyl 4-cyanobenzoate] |  |  |  |  |  |  |  |  |  | isoTOP-ABPP ratio, lysine Q14CX7_K575 [1]: 0.8; isoTOP-ABPP ratio, lysine Q14204_K1649 [2]: 1.3; isoTOP-ABPP ratio, lysine P00367_K480 [3]: 1.2; isoTOP-ABPP ratio, lysine Q9NZ08_K685 [4]: 1.6; isoTOP-ABPP ratio, lysine Q13033_K755 (STRN3 Striatin-3): 1.0; isoTOP-ABPP ratio, lysine P13639_K235 (EEF2 Elongation factor 2): 1.0; isoTOP-ABPP ratio, lysine P13639_K318 (EEF2 Elongation factor 2): 1.1; isoTOP-ABPP ratio, lysine Q8N163_K97 [5]: 0.8; isoTOP-ABPP ratio, lysine Q8N163_K112 [5]: 1.0 |
| O=C(CCc1coc2cc(F)ccc2c1=O)Oc1ccc([N+](=O)[O-])cc1[N+](=O)[O-] [fragment 36, 2,4-Dinitrophenyl 3-(7-fluoro-4-oxo-4H-chromen-3-yl)propanoate] |  |  |  |  |  |  |  |  |  | isoTOP-ABPP ratio (R) at liganded lysine Q14CX7_K575 ([1]; 50 uM, in vitro, sol, 231): 1.5; isoTOP-ABPP ratio (R) at liganded lysine Q14204_K1649 ([2]; 50 uM, in vitro, sol, 231): 1.2; isoTOP-ABPP ratio (R) at liganded lysine P00367_K480 ([3]; 50 uM, in vitro, sol, 231): 3.2; isoTOP-ABPP ratio (R) at liganded lysine Q9NZ08_K685 ([4]; 50 uM, in vitro, sol, 231): 1.1; isoTOP-ABPP ratio (R) at liganded lysine Q13033_K755 (STRN3 Striatin-3; 50 uM, in vitro, sol, 231): 1.3; isoTOP-ABPP ratio (R) at liganded lysine P13639_K235 (EEF2 Elongation factor 2; 50 uM, in vitro, sol, 231): 1.0; isoTOP-ABPP ratio (R) at liganded lysine P13639_K318 (EEF2 Elongation factor 2; 50 uM, in vitro, sol, 231): 1.0; isoTOP-ABPP ratio (R) at liganded lysine Q8N163_K97 ([5]; 50 uM, in vitro, sol, 231): 0.9; isoTOP-ABPP ratio (R) at liganded lysine Q8N163_K112 ([5]; 50 uM, in vitro, sol, 231): 1.1 |
| CCn1cc(C(=O)Oc2c(F)c(F)c(F)c(F)c2F)c(=O)c2ccc(C)nc21 [fragment 28, Pentafluorophenyl 1-ethyl-7-methyl-4-oxo-1,4-dihydro-1,8-naphthyridine-3-carboxylate] | 0.8 | 1.0 | 1.0 | 1.4 | 0.9 | 1.4 | 1.6 | 0.9 | 1.1 |  |
| O=C(CCc1cn(-c2ccccc2)nc1-c1ccccc1)Oc1c(F)c(F)c(F)c(F)c1F [fragment 19, Pentafluorophenyl 3-(1,3-diphenyl-1H-pyrazol-4-yl)propanoate] |  |  |  |  |  |  |  |  |  | R value (DMSO/fragment) for probe 1 labeling ([1]; Q14CX7_K575, 50 uM, 231 sol, in vitro): 1.0; R value (DMSO/fragment) for probe 1 labeling ([2]; Q14204_K1649, 50 uM, 231 sol, in vitro): 1.0; R value (DMSO/fragment) for probe 1 labeling ([3]; P00367_K480, 50 uM, 231 sol, in vitro): 1.0; R value (DMSO/fragment) for probe 1 labeling ([4]; Q9NZ08_K685, 50 uM, 231 sol, in vitro): 1.1; R value (DMSO/fragment) for probe 1 labeling (STRN3 Striatin-3; Q13033_K755, 50 uM, 231 sol, in vitro): 0.9; R value (DMSO/fragment) for probe 1 labeling (EEF2 Elongation factor 2; P13639_K235, 50 uM, in vitro): 1.2; R value (DMSO/fragment) for probe 1 labeling (EEF2 Elongation factor 2; P13639_K318, 50 uM, in vitro): 1.1; R value (DMSO/fragment) for probe 1 labeling ([5]; Q8N163_K97, 50 uM, in vitro): 0.9; R value (DMSO/fragment) for probe 1 labeling ([5]; Q8N163_K112, 50 uM, in vitro): 1.2 |
